Entries after “also recorded” stand apart in the source; their conditions may differ.
Key:
[1] = radiolysis under X-ray irradiation (17.5 keV), followed by HPLC; assay type: physicochemical; settings: soft X-ray irradiation 17.5 keV
Experimental: The radiolysis was followed either by the diminution of the caged compound 5, or by the increasing of the photo-products 6 and 7. […] The photo-fragmentation follows a first order kinetic with a time constant of 4.7×10^−3 min^−1.
The evolution of the radiolysis was followed by HPLC using C-18 reverse phase chromatography (XTerra, eluents: methanol/HCO2H (0.1% aq), H2O/HCO2H (0.1% aq) detection at 260 and 320 nm).

[2] = photolysis under one-photon (UV) irradiation at 366 nm, followed by HPLC/LC-MS; assay type: physicochemical; settings: 366 nm UV irradiation, physiological conditions / aqueous buffer pH 7
Experimental: The photochemical efficiency of any chromophores is determined by the extinction coefficient (ε) and the quantum yield (Qu) that is characteristic of the observed photochemical event of the chromophore. The product of these quantities (εQu) characterizes the efficiency of the event such as fluorescence or chemical transformation, for example by the incident light.
The photolysis at 366 nm of compound 5 was monitored by the disappearance of the caged hydrocinnamate 5 and by the appearance of the compounds 6 and 7, by using liquid chromatography (LC) or liquid-chromatography-mass spectrometry (LC-MS) techniques. […] In contrast, compound 4 was inert under UV irradiation at 366 nm.
Samples were prepared in c=0.1 mM concentration in aqueous TRIS buffer (pH=7). An aliquot (1 mL) of this solution was irradiated at 366 nm (ε366=3000 M^−1·cm^−1) in a 1 mL quartz cuvette. The evolution of the photolysis was followed by HPLC using C-18 reverse phase chromatography (XTerra, eluents: methanol/HCO2H (0.1% aq), H2O/HCO2H (0.1% aq) detection at 260 and 320 nm).

Structure (SMILES) | photo-fragmentation under X-ray irradiation [1] | photolysis under near UV irradiation (366 nm) [2]
CC(C)(C)OC(=O)N1CCN(c2ccc3ccc(COC(=O)CCc4ccccc4)nc3c2)CC1 [compound 3] | no detectable photo-fragmentation; also recorded: no traces of photo-fragmentation | prone to photolysis
O=C(CCc1ccccc1)OCc1ccc2ccc(N3CCNCC3)cc2n1 [compound 4] | no detectable photo-fragmentation; also recorded: no traces of photo-fragmentation | inert

From patent US8759331B2, “X-ray and gamma-photon activable organic compounds, their preparation and their uses” (Centre National de la Recherche Scientifique, priority 2010, dated 2014)
